# Results published in patent publication US12668584B2, “Heterocyclic compounds as kinase inhibitors for therapeutic uses” (National Health Research Institutes, priority 2019, dated 2026).
# pIC50: −log10 of the molar value.
# How the values were obtained:
# [1] = target: T1, CSF1R kinase (recombinant N-terminal GST-CSF1R, residues L534-C972) (Homo sapiens, UniProt P07333); experiment: CSF1R Kinase-Glo assay; type: biochemical; conditions: 40 μM ATP, 30° C. 180 min, read-out: Enzymatic Assay CSF1R enzyme IC50
# T1 construct: Recombinant N-terminal GST-CSF1R (CSF1R residues L534-C972) containing the CSFIR kinase domain; made in house; host or cells: Sf9 insect cells
# T1 sequence (P07333 534-972): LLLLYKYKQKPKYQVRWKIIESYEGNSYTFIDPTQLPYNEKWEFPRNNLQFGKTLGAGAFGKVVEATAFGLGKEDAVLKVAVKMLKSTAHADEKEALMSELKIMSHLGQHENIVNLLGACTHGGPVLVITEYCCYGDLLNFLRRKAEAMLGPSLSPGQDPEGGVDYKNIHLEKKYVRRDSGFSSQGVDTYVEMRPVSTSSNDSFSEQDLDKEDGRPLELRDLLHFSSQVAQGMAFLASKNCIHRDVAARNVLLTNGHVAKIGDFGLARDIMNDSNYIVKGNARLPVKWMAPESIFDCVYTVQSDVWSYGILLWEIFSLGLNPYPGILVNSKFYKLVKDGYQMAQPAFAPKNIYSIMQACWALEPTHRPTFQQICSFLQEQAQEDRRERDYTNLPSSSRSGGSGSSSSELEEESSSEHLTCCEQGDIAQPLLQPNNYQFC
# Experimental: A study was conducted to test certain compounds described in EXAMPLE 1 in inhibiting CSF1R kinase activity.
# Activity of CSF1R kinase was determined using a CSF1R Kinase-Glo assay. Recombinant N-terminal GST-CSF1R (CSF1R residues L534-C972) containing the CSFIR kinase domain was expressed in Sf9 insect cells and purified. The kinase assay was carried out in 96-well plates at 30° C. for 180 min with the tested compounds in a final volume of 50 μl including the following components: 25 mM Tris-HCl pH 7.4, 4 mM MnCl2, 10 mM MgCl2, 0.01% BSA, 0.5 mM NA3VO4, 0.02% Triton X-100, 40 μM ATP, 2 mM DTT and 20 μM poly(Glu,Tyr) 4:1 peptide, and 600 ng recombinant GST-CSF1R. Following incubation, 50 μl Kinase-Glo Plus Reagent (Promega, Madison, WI, USA) was added and the mixture was incubated at 25° C. for 20 min. A 70-μL aliquot of each reaction mixture was transferred to a black microtiter plate and luminescence was measured on Wallac Vector 1420 multilabel counter (PerkinElmer, Shelton, CT, USA). Percentage inhibition values were obtained by comparison of reaction rate with the rates in control wells (i.e., in the absence of test compound). IC50 values were calculated from a series of percentage inhibition values determined at a range of test compound concentrations using GraphPad Prism version 6 software (GraphPad, San Diego, CA, USA).
# M-NFS-60 cells = experiment: MTS cell viability assay, M-NFS-60; type: cell-based; conditions: 72 h, read-out: Cellular Proliferation Assay M-NFS-60 (nM) GI50
# Experimental: (§1) Studies were conducted to evaluate […] anticancer activity of certain compounds described in EXAMPLE 1 using 3-(4,5-dimethylthiazol-2-yl)-5-(3-carboxymethoxyphenyl)-2-(4-sulfophenyl)-2H-tetrazolium) (MTS) cell viability assays. Results from these studies are shown in Table 2 below (see columns 3 and 4).
# (§2) The cell lines M-NFS-60 (ATCC® CRL-1838™) and BaF3-CSF1R-1600 were obtained from American Type Culture Collection (ATCC, Manassas, VA, USA). The stable BaF3-CSF1R-1600 cell line expresses ETV6-CSF1R fusion protein consisting of N-terminal ETS-variant gene 6 protein (ETV6 residues M1-G337) and CSF1R tyrosine kinase (CSF1R residues L533-C972). The M-NSF-60 and BaF3-CSF1R-1600 cells were cultured in RPMI1640 medium supplemented with 10% fetal bovine serum, 0.05 mM 2-ME, 10 U/ml penicillin, and 10 µg/ml streptomycin at 37° C. and 5% CO2.
# (§3) M-NFS-60 and BaF3-CSF1R-1600 cells were seeded in 96-well plates at a density of 10000 cells/100 μl and 8000 cells/100 μl per well, respectively, for 16 h and treated with vehicle or various concentrations of test compounds in medium for 72 h. Viable cells were quantified using the MTS method (Promega, Madison, WI, USA) according to manufacturer's recommended protocol. The results were determined by measuring absorbance at 490 nm using a plate reader (Victor 2). The GI50 value was defined as the amount of compound that caused 50% reduction in cell viability in comparison with DMSO-treated (vehicle) control and was calculated using Prism GraphPad Prism version 6 software (GraphPad).
# [2] = system: BaF3-CSF1R-1600 cells (express ETV6-CSF1R fusion protein); experiment: MTS cell viability assay, BaF3-CSF1R-1600; type: cell-based; conditions: 72 h, read-out: Cellular Proliferation Assay BaF3-CSF1R GI50
# Experimental: as §1, §2, §3
pIC50 [1],GI50 [2],SMILES,GI50 (M-NFS-60 cells)
7.00 to 7.70,0.1 to 1 µM,O=C(Nc1ccccc1)Nc1ccc(Oc2ncnc3cc(N4CCC[C@@H]4CO)ccc23)cc1 [Compound 1],100 to 1000 nM
7.00 to 7.70,0.02 to 0.1 µM,COC1CCN(c2ccc3c(Oc4ccc(NC(=O)Nc5ccccc5)cc4)ncnc3c2)CC1 [Compound 2],20 to 100 nM
7.00 to 7.70,0.02 to 0.1 µM,CN1CCN(c2ccc3c(Oc4ccc(NC(=O)Nc5ccccc5)cc4)ncnc3c2)CC1 [Compound 3],20 to 100 nM
7.00 to 7.70,0.02 to 0.1 µM,"CN(C)c1ccc2c(Oc3ccc(NC(=O)Nc4ccccc4)cc3)ncnc2c1 [Compound 4, 1-(4-((7-(dimethylamino)quinazolin-4-yl)oxy)phenyl)-3-phenylurea]",20 to 100 nM
7.00 to 7.70,,O=C(Nc1ccccc1)Nc1ccc(Oc2ncnc3cc(N[C@@H]4CCCC[C@H]4O)ccc23)cc1 [Compound 5],100 to 1000 nM
7.00 to 7.70,,COC[C@@H]1CCCN1c1ccc2c(Oc3ccc(NC(=O)Nc4ccccc4)cc3)ncnc2c1 [Compound 6],
< 6.00,,O=C(Nc1ccccc1)Nc1ccc(Oc2ncnc3cc(Br)ccc23)cc1 [Compound 7],
6.00 to 7.00,,O=C(Nc1ccccc1)Nc1ccc(Oc2ncnc3cc(F)ccc23)cc1 [Compound 8],
7.00 to 7.70,0.02 to 0.1 µM,O=C(Nc1ccccc1)Nc1ccc(Oc2ncnc3cc(N4CCCC4)ccc23)cc1 [Compound 9],20 to 100 nM
7.00 to 7.70,0.1 to 1 µM,COC[C@H]1CCCN1c1ccc2c(Oc3ccc(NC(=O)Nc4ccccc4)cc3)ncnc2c1 [Compound 10],100 to 1000 nM
7.00 to 7.70,0.02 to 0.1 µM,CN(C)C1CCN(c2ccc3c(Oc4ccc(NC(=O)Nc5ccccc5)cc4)ncnc3c2)CC1 [Compound 11],20 to 100 nM
7.00 to 7.70,,COCCCNc1ccc2c(Oc3ccc(NC(=O)Nc4ccccc4)cc3)ncnc2c1 [Compound 12],
6.00 to 7.00,,CN(C)c1ccc2c(Oc3ccc(NC(=O)Nc4ccc(C(F)(F)F)cc4)cc3)ncnc2c1 [Compound 13],
> 7.70,< 0.02 µM,CN(C)c1ccc2c(Oc3ccc(NC(=O)Nc4ccccc4F)cc3)ncnc2c1 [Compound 14],100 to 1000 nM
> 7.70,0.02 to 0.1 µM,CN(C)c1ccc2c(Oc3ccc(NC(=O)Nc4ccccc4Cl)cc3)ncnc2c1 [Compound 15],100 to 1000 nM
> 7.70,0.02 to 0.1 µM,CN(C)c1ccc2c(Oc3ccc(NC(=O)Nc4cccc(Cl)c4)cc3)ncnc2c1 [Compound 16],20 to 100 nM
> 7.70,0.02 to 0.1 µM,COC1CCN(c2ccc3c(Oc4ccc(NC(=O)Nc5cccc(Cl)c5)cc4)ncnc3c2)CC1 [Compound 17],20 to 100 nM
6.00 to 7.00,,CN(C)c1ccc2c(Oc3ccc(NC(=S)Nc4ccccc4)cc3)ncnc2c1 [Compound 22],
6.00 to 7.00,,CCc1cc(Oc2ncnc3cc(N(C)C)ccc23)ccc1NC(=O)NCc1ccc(C(F)(F)F)nc1 [Compound 29],
< 6.00,,Cc1cc(Oc2ncnc3cc(N(C)C)ccc23)c(C)cc1NC(=O)NCc1ccc(C(F)(F)F)nc1 [Compound 35],
7.00 to 7.70,,CN(C)c1ccc2c(Oc3ccc(NC(=O)NCc4ccc(C(F)(F)F)nc4)c(F)c3)ncnc2c1 [Compound 36],100 to 1000 nM
< 6.00,,Cc1cc(Oc2ncnc3cc(N(C)C)ccc23)ccc1NC(=O)NCc1ccc(C(F)(F)F)nc1 [Compound 38],
> 7.70,,CN(CCCO)c1ccc2c(Oc3ccc(NC(=O)NCc4ccc(C(F)(F)F)nc4)cc3)ncnc2c1 [Compound 39],100 to 1000 nM
7.00 to 7.70,0.1 to 1 µM,CCOc1cc2ncnc(Oc3ccc(NC(=O)NCc4ccc(C(F)(F)F)nc4)cc3)c2cc1F [Compound 41],

pIC50 [1],GI50 [2],SMILES,GI50 (M-NFS-60 cells)
< 6.00,,CN(C)c1ccc2c(Oc3ccc(N(C)C(=O)NCc4ccc(C(F)(F)F)nc4)cc3)ncnc2c1 [Compound 47],
7.00 to 7.70,,CN(C)c1ccc2c(Oc3ccc(NC(=O)NCC4CCCCC4)cc3)ncnc2c1 [Compound 50],
6.00 to 7.00,,CN(C)c1ccc2c(Oc3ccc(NC(=O)Nc4cccc5ccccc45)cc3)ncnc2c1 [Compound 52],
6.00 to 7.00,,CN(C)c1ccc2c(Oc3ccc(NC(=O)Nc4cccc(C(F)(F)F)c4)cc3)ncnc2c1 [Compound 53],
6.00 to 7.00,,CN(C)c1ccc2c(Oc3ccc(NC(=O)NCc4cccnc4)cc3)ncnc2c1 [Compound 54],
7.00 to 7.70,,COc1ccc(CNC(=O)Nc2ccc(Oc3ncnc4cc(N(C)C)ccc34)cc2)cc1OC [Compound 55],
7.00 to 7.70,,CN(C)c1ccc2c(Oc3ccc(NC(=O)NCc4ccc(C#N)cc4)cc3)ncnc2c1 [Compound 60],
6.00 to 7.00,,CN(C)c1ccc2c(Oc3ccc(NC(=O)NCc4ccc(C(F)(F)F)cc4)c(F)c3)ncnc2c1 [Compound 61],
> 7.70,0.1 to 1 µM,CN(C)c1ccc2c(Oc3ccc(NC(=O)NCc4c(F)c(F)c(F)c(F)c4F)cc3)ncnc2c1 [Compound 62],
< 6.00,,COc1ccc(CNC(=O)Nc2ccc(Oc3ncnc4cc(N(C)C)ccc34)cc2C)cc1 [Compound 64],
< 6.00,,CN(C)c1ccc2c(Oc3ccc4c(cnn4C(=O)NCc4ccc(C(F)(F)F)nc4)c3)ncnc2c1 [Compound 69],
6.00 to 7.00,,CN(C)c1ccc2c(Nc3ccc(NC(=O)Nc4ccccc4)cc3)ncnc2c1 [Compound 71],
< 6.00,,COCCCNC(=O)c1cc(Oc2ccc(NC(=O)Nc3ccccc3)cc2)ccn1 [Compound 72],
7.00 to 7.70,,CN(C)c1ccc2c(Oc3ccc(NC(=O)NCc4ccc(C(F)(F)F)nc4)cc3)ccnc2c1 [Compound 73],
< 6.00,,CN(C)c1ccc2c(Oc3ccc(NC(=O)NCc4ccc(C(F)(F)F)nc4)cc3)c(C#N)cnc2c1 [Compound 75],
6.00 to 7.00,,O=C(NCc1ccc(C(F)(F)F)nc1)Nc1ccc(Oc2ccnc(C(=O)NCCCN3CCOCC3)c2)cc1 [Compound 77],
6.00 to 7.00,,CN(C)c1ccc2c(Oc3cnc4c(ccn4C(=O)NCc4ccc(C(F)(F)F)nc4)c3)ncnc2c1 [Compound 83],
6.00 to 7.00,,CN(C)c1ccc2c(Oc3ccc(NC(=O)NCc4ccn(C)n4)cc3)ncnc2c1 [Compound 84],
7.00 to 7.70,,Cn1cc(-c2ccc3c(Oc4ccc(NC(=O)NCc5ccc(C(F)(F)F)nc5)cc4)ncnc3c2)cn1 [Compound 85],
< 6.00,,COC(C)(C)CNC(=O)Nc1ccc(Oc2ncnc3cc(N(C)C)ccc23)cc1 [Compound 87],
6.00 to 7.00,,CN(C)c1ccc2c(Oc3ccc4c(ccn4C(=O)NCc4ccc(C(F)(F)F)nc4)n3)ncnc2c1 [Compound 89],
6.00 to 7.00,,CN(C)c1ccc2c(Oc3ccc(NC(=O)NCC(C)(C)C)cc3)ncnc2c1 [Compound 90],
7.00 to 7.70,,O=C(NCc1ccc(C(F)(F)F)nc1)Nc1ccc(Oc2ncnc3[nH]ccc23)cc1 [Compound 93],
7.00 to 7.70,,CNc1ccc2c(Oc3ccc(NC(=O)Nc4ccccc4)cc3)ncnc2c1 [Compound 107],
